Assay results: patent US6106866A, “In vivo agents comprising cationic drugs, peptides and metal chelators with acidic saccharides and glycosaminoglycans, giving improved site-selective localization, uptake mechanism, sensitivity and kinetic-spatial profiles, including tumor sites” (Access Pharmaceuticals, Inc., priority 1995, dated 2000)
Values after ≈ are worked out from the molar mass of the structure shown. Values joined by “and” are separate entries in the source; they are usually repeats but may differ in a detail not shown here. Equal entries are not always repeated. “Also recorded” adds a separate entry of the source. No end group written: not given here. *: point of attachment. For = O=C*

Assays:
[1] = Binding of active to dermatan sulfate carrier (dialysis retention, 500 MW cutoff); conditions: for paired-ion binding of peptide to dermatan sulfate: ca. 60:40 (active to dermatan sulfate)
Procedure: (§1) Multiple batches of Ferrioxamine:Dermatan Sulfate Agent have been prepared.
Vincristine (Sigma Chemical Co., St. Louis) is dissolved in water and mixed with dermatan sulfate at ratios of between 90:10 and 30:70 (w/w) drug to dermatan sulfate.
Amikacin, gentamicin and tobramycin (all obtained from Sigma Chemical Co., St. Louis) are dissolved in water and mixed with either dermatan sulfate (435 Type) or beef lung heparin (Hepar-Kabi-Pharmacia) at ratios of between 90:10 and 30:70 (w/w) drug to glycosaminoglycan.

[2] = Binding of complexes to heparin or sucrose octasulfate (dialysis, UV-Visible titration, solubilization)
Procedure: UV-Visible spectrophotometric titration indicates maximum binding occurs at a molar ratio of 18:1 (iron-porphine:heparin).
(a) To this resulting aqueous dispersion of complex is added beef lung heparin, to give final complex-to-heparin ratios of between 95:5 and 5:95 (by weight). […] This apparent solubilization is indicative of paired-ion binding between triethylenetetraamine-iron and heparin.
(b) To the aqueous dispersion of triethylenetetraamine-iron complex is added sucrose octasulfate (SOS), to give final complex-to-SOS ratios of between 95:5 and 5:95 (by weight).

[3] = physchem; conditions: water
Text: as §1

[4] = system: antithrombin III; conditions: cited from earlier work
[5] = system: acute myocardial infarct; assay: MRI contrast enhancement of acute myocardial infarcts; type: in vivo, German Shepherd dogs; conditions: 0.155 mmol/Kg
Text: FIG. 11A, FIG. 11B, FIG. 11C and FIG. 11D show T1-weighted MRI ECG-gated cardiovascular images performed at 0.5 Tesla, before (Pre) and after (Post) rapid intravenous (i.v.) infusion of Ferrioxamine:Dermatan Sulfate Selective Paramagnetic Contrast Agent prepared as in Examples 2 and 5, and injected i.v. at an Iron(III) dose of 0.155 mmol/Kg into German Shepherd dogs with acute, 90-min myocardial infarcts (ligature of proximal left anterior descending coronary artery) followed by reperfusion for ca. 90 minutes prior to contrast agent infusion.
In these studies, infarct sizes and positions are documented by double dye infusion performed immediately after MRI imaging.

[6] = T1 relaxivity (R1), IBM PC20 Minispectrometer / ICP-AA metal measurement; type: physicochemical
Procedure: Batch quantities of the Fe(III) chelate of deferoxamine are prepared as follows. Deferoxamine mesylate (methanesulfonate) (Ciba-Geigy Limited, Basel, Switzerland), 390 g, is dissolved in pharmaceutical-grade water. Alternatively, the chloride salt of deferoxamine may be used. […] This final batch volume is adjusted as desired, typically to a final volume of 2600 mL. Any remaining trace amounts of unreacted Fe(O)OH are removed and the solution also made aseptic, by passing the supernatant through a 0.22 μm Millipore GV-type filter in a Class 100 laminar flow hood. The resulting batch is stored at 4° C. in an autoclaved, sealed glass container until further use (see Examples below). The final concentration of ferrioxamine (DFe) is determined once again by UV-Visible absorbance spectrophotometry at 430 nm.
The pH is adjusted to 7.0 by addition of 1.0 N NaOH. […] In the case of gadolinium oxide, neutralization with 1.0 N NaOH is not needed. […] This precipitate is rewashed with ethanol and centrifuged (as above), washed with acetone plus centrifuged, and the collected precipitate dried over a stream of dry nitrogen.

[7] = system: syngeneic breast adenocarcinoma; assay: Special histologic iron stain of breast adenocarcinoma; type: in vivo, Fisher 344 female rats; conditions: central tumor, 7-10 MPI
Text: FIG. 6. Special histologic stain (heated ferroferricyanide reaction) of formalin-fixed section of syngeneic breast adenocarcinoma excised from liver inoculation site of Fisher 344 female rats: […] Sulfate Selective MRI Contrast Agent.
(§2) Tumors are not conspicuous on standard T1-weighted Precontrast images. […] The sustained intervals shown in FIG. 8A, FIG. 8B and FIG. 8C are much longer than those typically reported for Gd:DTPA dimeglumine contrast enhancement at body organ sites.

[8] = system: syngeneic breast adenocarcinoma; assay: MRI contrast enhancement of breast adenocarcinoma inoculated in liver (and metastases); type: in vivo, Fisher 344 female rats; conditions: 7 MPI, 0.155 mmol/Kg i.v.
Text: FIG. 2A, FIG. 2B, FIG. 3A, FIG. 3B, FIG. 4A, FIG. 4B, FIG. 4C, FIG. 4D and FIG. 8A, FIG. 8B and FIG. 8C show T1-weighted MRI images (TR/TE=800/45, 550/23 and 600/45) performed at 1.0 and 1.5 Tesla, before (Pre) and after (Post) intravenous (i.v.) injection of Ferrioxamine:Dermatan Sulfate Selective Paramagnetic Contrast Agent, prepared as in Examples 2 and 5, and injected i.v. at a Ferrioxamine dose of 0.155 mmol/Kg into Fisher 344 female rats, with syngeneic breast adenocarcinoma inoculated previously into the liver, such that tumor diameters at the time of imaging are between 1.0 cm and 2.5 cm.
as §2
T1-weighted MRI images (TR-TE=800/45) are performed at 1.0 Tesla, before (Pre) and after (Post) intravenous (i.v.) injection of Gd:MPD-DTPA:DS (DS=435 Type, Opocrin) at a dose of 0.155 mmol/kg into Fisher 344 female rats with syngeneic breast adenocarcinomas inoculated by trocar into the livers, as in Example 18 (above). A T2 scout image (TR/TE=2100/85) is performed in advance of the T1 image contrast series, in order to identify the approximate location(s) of tumor nodule(s) (FIG. 18A). […]

[9] = Gd(III) when chelated by DTPA; cited from earlier work
[10] = system: syngeneic breast adenocarcinoma; conditions: rat, in vivo, iv; cited from earlier work
[11] = system: AT-1 prostate adenocarcinoma; assay: MRI contrast enhancement of AT-1 prostate adenocarcinoma; type: in vivo, Copenhagen rats
Procedure: (§3) FIG. 14A, FIG. 14B, FIG. 14C and FIG. 14D show MRI 4.7 Tesla, T1-weighted images of Copenhagen rats with the AT-1 prostate tumor model (as in FIG. 13A, FIG. 13B, FIG. 13C and FIG. 13D), but rats are injected i.v. with Ferrioxamine Selective Contrast Agent, wherein the Active is non-covalently bound to Oversulfated Dermatan Sulfate, the Agent lyophilized and reconstituted with water just prior to administration at a concentration of 0.332 mmol/mL Fe(III) and administered at the usual dose of 0.155 mmol of Fe(III) per Kg.
as §3, with “15A,” for “14A,”, “15B,” for “14B,”, “15C” for “14C”, “15D” for “14D”, “Chondroitin” for “Dermatan”
as §3, with “16A,” for “14A,”, “16B,” for “14B,”, “16C” for “14C”, “16D” for “14D”, “a non-anticoagulant GAG, Heparan” for “Oversulfated Dermatan”
FIG. 19A, FIG. 19B, FIG. 19C, FIG. 19D and FIG. 19E show T1-weighted images at 4.7 Tesla (TR/TE=250/8) of Copenhagen rats with syngeneic AT-1 prostate adenocarcinomas inoculated into previously prepared skin pouches [Hahn et al. (1993)], and imaged at diameters of 1.0-2.5 cm.
Based on low anticoagulant activity, safety and projected site-localizationpotential, certain alternative glycosaminoglycan carriers and certain alternative physical forms of the resulting Selective MRI Contrast Agents are compared for their relative in vivo potencies of carrier-mediated tumor localization of bound Ferrioxamine. Because of its high spatial resolution and capacity to detect subtle quantitative differences in agent localization, the AT-1 prostate tumor model of Example 19 is used.

[12] = comparison value; cited from earlier work

## CC[C@]1(O)C[C@H]2CN(CCc3c([nH]c4ccccc34)[C@@](C(=O)OC)(c3cc4c(cc3OC)N(C=O)[C@H]3[C@@](O)(C(=O)OC)[C@H](OC(C)=O)[C@]5(CC)C=CCN6CC[C@]43[C@@H]65)C2)C1 [Vincristine]
[1]
  retention inside 500 MW cutoff dialysis bag: not the drug alone

## arg-pro-pro-gly-phe-ser-pro-phe-arg (RPPGFSPFR; formulated with dermatan sulfate) [arginine bradykinin, basic peptide, formulated with dermatan sulfate]
[1]
  paired-ion binding of peptide to dermatan sulfate: Strong paired-ion binding

## 5,10,15,20-tetrakis(1-methyl-4-pyridyl)-21H-23H-porphine [iron-porphine]
[2]
  Binding of iron-porphine to heparin: ~100%
  dialysis of iron-porphine alone: nearly completely dialyzed
  molar ratio at maximum binding (iron-porphine:heparin): 18:1

## N-formyl-met-leu-phe-lys (For-MLFK) [basic white-cell chemoattractant peptide, formulated with dermatan sulfate]
[1]
  paired-ion binding of peptide to dermatan sulfate: Strong paired-ion binding
[1]; emission 518 nm, excitation 257 nm
  fluorescence on binding to dermatan sulfate: fluorescence enhancement

## CC(=O)N(O)CCCCCNC(=O)CCC(=O)N(O)CCCCCNC(=O)CCC(=O)N(O)CCCCCN [deferoxamine]
[3]
  solubility: 320 mg/mL (≈ 571 mM)

## dermatan sulfate
[4]
  inhibition of antithrombin III: neither dermatan sulfate nor its 8-12 unit fragment inhibits

## CC(=O)N([O-])CCCCCNC(=O)CCC(=O)N([O-])CCCCCNC(=O)CCC(=O)N([O-])CCCCCN.[Fe+3] [Ferrioxamine]
[5]
  MRI enhancement of infarct, active without carrier: no detectible enhancement
[5]; listed as Ferrioxamine Agent Alone
  MRI enhancement of infarct, active without carrier: no detectable enhancement
[6]
  R1 (T1 relaxivity): 1.5-1.8 [mmol.sec]^-1 and 1.6-1.8 [mmol.sec]^-1 and 1.6 (mmol.sec)^-1
[7]
  staining positivity for iron: complete absence of staining positivity
[8]
  MRI contrast enhancement of breast tumor in liver: only very slight or nonexistent

## O=C([O-])CN(CCN(CC(=O)[O-])CC(=O)O)CCN(CC(=O)[O-])CC(=O)O.[Gd+3] [Gd:DTPA]
[9]
  in vitro R1: 4.0-4.3 [mmol.sec]^-1
[10]
  t1/2 at the site: 12 to 20 min

## CNC[C@H](O)[C@@H](O)[C@H](O)[C@H](O)CO.CNC[C@H](O)[C@@H](O)[C@H](O)[C@H](O)CO.O=C([O-])CN(CCN(CC(=O)[O-])CC(=O)O)CCN(CC(=O)[O-])CC(=O)O.[Gd+3] [Gd:DTPA dimeglumine]
[11]; 7 MPI
  MRI contrast enhancement of AT-1 tumor: the outer rim is not well delineated
[11]; 20 MPI
  MRI contrast enhancement of AT-1 tumor: Marked early contrast fading occurs overall in the tumor
[11]; 40 MPI
  MRI contrast enhancement of AT-1 tumor: enhancement is nearly reverted to background levels; also recorded: enhancement reverts to essentially background levels
[11]; 60 MPI
  MRI contrast enhancement of AT-1 tumor: no residual contrast, except for central cystic regions
[12]
  LD50: 4.0 mmol/kg
